# In ChEMBL document CHEMBL5247604, “Discovery of novel hybrids containing clioquinol-1-benzyl-1,2,3,6-tetrahydropyridine as multi-target-directed ligands (MTDLs) against Alzheimer's disease” (Eur J Med Chem, 2022):
# Activity calls are given as the source filed them. The calls are words filed in the database; no cut-off is given here.
# Assays:
# [1] = target: Acetylcholinesterase (Electrophorus electricus, UniProt O42275); assay: Inhibition of electric eel AChE using acetylthiocholine iodide as substrate preincubated for 15 mins followed by substrate addition by Ellman's method
# Sequence of Acetylcholinesterase (O42275 whole entry): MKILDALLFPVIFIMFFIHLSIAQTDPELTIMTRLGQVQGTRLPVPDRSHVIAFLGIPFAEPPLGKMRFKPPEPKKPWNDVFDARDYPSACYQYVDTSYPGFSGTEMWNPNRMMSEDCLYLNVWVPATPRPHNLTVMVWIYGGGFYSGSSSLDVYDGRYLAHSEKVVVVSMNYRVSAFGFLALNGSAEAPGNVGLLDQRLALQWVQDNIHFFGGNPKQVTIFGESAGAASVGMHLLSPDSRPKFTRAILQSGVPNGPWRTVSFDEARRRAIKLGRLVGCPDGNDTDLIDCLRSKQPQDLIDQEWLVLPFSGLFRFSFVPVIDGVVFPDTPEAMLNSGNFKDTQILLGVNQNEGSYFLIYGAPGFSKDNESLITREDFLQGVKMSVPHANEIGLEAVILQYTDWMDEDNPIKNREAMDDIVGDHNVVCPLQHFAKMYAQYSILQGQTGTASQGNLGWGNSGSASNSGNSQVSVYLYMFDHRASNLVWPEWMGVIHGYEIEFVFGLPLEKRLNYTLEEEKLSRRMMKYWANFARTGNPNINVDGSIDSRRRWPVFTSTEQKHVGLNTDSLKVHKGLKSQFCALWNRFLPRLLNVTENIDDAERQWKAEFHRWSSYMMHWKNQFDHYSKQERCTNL
# [2] = target: T1, Amyloid-beta precursor protein (Homo sapiens, UniProt P05067); assay: Inhibition of Cu2+ induced amyloid beta (1 to 42 ) (unknown origin) aggregation assessed as reduction in fibrils incubated for 24 hr by TEM analysis
# T1 sequence (P05067 whole entry): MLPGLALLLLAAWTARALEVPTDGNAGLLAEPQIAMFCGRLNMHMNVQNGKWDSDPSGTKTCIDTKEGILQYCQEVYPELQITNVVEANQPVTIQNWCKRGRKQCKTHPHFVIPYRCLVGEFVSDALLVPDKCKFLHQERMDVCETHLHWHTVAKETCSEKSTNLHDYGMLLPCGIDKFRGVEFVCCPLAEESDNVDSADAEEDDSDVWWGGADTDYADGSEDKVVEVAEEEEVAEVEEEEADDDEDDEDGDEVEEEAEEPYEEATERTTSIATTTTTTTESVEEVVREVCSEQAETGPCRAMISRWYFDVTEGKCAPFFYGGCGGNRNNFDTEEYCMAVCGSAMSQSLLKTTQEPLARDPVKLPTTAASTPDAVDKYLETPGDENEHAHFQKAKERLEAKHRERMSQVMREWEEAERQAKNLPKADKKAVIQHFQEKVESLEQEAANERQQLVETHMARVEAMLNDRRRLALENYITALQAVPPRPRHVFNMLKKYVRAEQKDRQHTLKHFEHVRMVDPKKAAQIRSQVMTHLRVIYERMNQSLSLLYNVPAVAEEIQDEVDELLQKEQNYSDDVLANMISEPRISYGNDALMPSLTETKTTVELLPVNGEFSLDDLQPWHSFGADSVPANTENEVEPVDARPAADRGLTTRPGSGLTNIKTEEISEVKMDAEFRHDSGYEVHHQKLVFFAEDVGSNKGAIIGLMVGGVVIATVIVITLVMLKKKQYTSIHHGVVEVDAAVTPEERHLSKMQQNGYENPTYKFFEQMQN
# [3] = target: T1, Amyloid-beta precursor protein; assay: Inhibition of amyloid beta (1 to 42 ) (unknown origin) self aggregation incubated for 24 hr by Thioflavin T based fluorometric assay
# [4] = target: T1, Amyloid-beta precursor protein; assay: Inhibition of Cu2+ induced amyloid beta (1 to 42 ) (unknown origin) aggregation incubated for 24 hr by Thioflavin T based fluorometric assay
# [5] = test system: SH-SY5Y; assay: Antialzheimer activity in human SH-SY5Y cells assessed as inhibition of GA-induced tau hyperphosphorylation at Ser396 residue at 0.1 to 3 uM incubated for 24 hrs by ELISA; format: functional, cell-based; conditions: dose 0.1-3 µM
# [6] = test system: Mus musculus; assay: Antialzheimer activity in human oligo-merized amyloid beta (1 to 42 residues)-induced cognitive impairment C57BL/6 mouse model assessed as decrease in escape latency at 5 mg/kg,ip qd for 10 days by Morris water maze test relative to control; format: functional, organism-based; conditions: time 10.0 day
# [7] = test system: Mus musculus; assay: Antialzheimer activity in human oligo-merized amyloid beta (1 to 42 residues)-induced cognitive impairment C57BL/6 mouse model assessed as increase duration in novel arm at 5 mg/kg,ip qd for 10 days by Y-maze test relative to control; format: functional, organism-based; conditions: time 10.0 day
# [8] = test system: SH-SY5Y; assay: Antioxidant activity against okadaic acid-induced ROS generation in human SH-SY5Y cells assessed as reduction in DCF fluorescence intensity pretreated for 24 hrs followed by okadaic acid addition for 24 hrs by DCFH-DA dye based fluorescence analysis; format: functional, cell-based
# [9] = test system: SH-SY5Y; assay: Antialzheimer activity in human SH-SY5Y cells assessed as inhibition of GA-induced tau hyperphosphorylation at Ser396 residue incubated for 24 hrs by ELISA; format: functional, cell-based
# [10] = in vivo; conditions: ICR, mouse, po
# Description: Acute toxicity in ICR mouse assessed as lethality at 21.30 to 52 mg/kg, po and measured upto 14 days
# [11] = test system: SH-SY5Y; assay: Neuroprotective activity in human SH-SY5Y cells assessed as inhibition of okadaic acid-induced mitochondrial membrane potential by measuring increase in red-to-green fluorescence intensity ratio pretreated for 24 hrs followed by okadaic acid addition for 24 hrs by JC-1 dye based fluorescence analysis; format: functional, cell-based
# [12] = test system: Mus musculus; assay: Antialzheimer activity in human oligo-merized amyloid beta (1 to 42 residues)-induced cognitive impairment C57BL/6 mouse model assessed as decrease TNF-alpha level in cortex at 5 mg/kg,ip qd for 10 days by ELISA; format: functional, organism-based; conditions: time 10.0 day
# [13] = test system: Mus musculus; assay: Antialzheimer activity in human oligo-merized amyloid beta (1 to 42 residues)-induced cognitive impairment C57BL/6 mouse model assessed as decrease IL-1beta level in cortex at 5 mg/kg,ip qd for 10 days by ELISA; format: functional, organism-based; conditions: time 10.0 day
# [14] = test system: SH-SY5Y; assay: Antialzheimer activity in human SH-SY5Y cells assessed as inhibition of GA-induced tau hyperphosphorylation at Ser199 residue incubated for 24 hrs by ELISA; format: functional, cell-based
# [15] = test system: SH-SY5Y; assay: Antioxidant activity against okadaic acid-induced ROS generation in human SH-SY5Y cells assessed as reduction in DCF fluorescence intensity at 1 to 10 uM pretreated for 24 hrs followed by okadaic acid addition for 24 hrs by DCFH-DA dye based fluorescence analysis; format: functional, cell-based; conditions: dose 1-10 µM
# [16] = test system: Mus musculus; assay: Antialzheimer activity in human oligo-merized amyloid beta (1 to 42 residues)-induced cognitive impairment C57BL/6 mouse model assessed as increase in percentage of time spent in the target quadrant at 5 mg/kg,ip qd for 10 days by Morris water maze test relative to control; format: functional, organism-based; conditions: time 10.0 day
# [17] = test system: SH-SY5Y; assay: Antialzheimer activity in human SH-SY5Y cells assessed as inhibition of GA-induced tau hyperphosphorylation at Ser199 residue at 0.1 to 3 uM incubated for 24 hrs by ELISA; format: functional, cell-based; conditions: dose 0.1-3 µM
# [18] = Metal chelating activity assessed as Zn2+-compound complex formation by measuring red shift in presence of ZnCl2 at 40 uM incubated for 30 mins by UV-Visible spectrophotometry
# [19] = Metal chelating activity assessed as Cu2+-compound complex formation by measuring red shift in presence of CuSO4 at 40 uM incubated for 30 mins by UV-Visible spectrophotometry
# [20] = Metal chelating activity assessed as Fe3+-compound complex formation by measuring red shift in presence of FeCl3 at 40 uM incubated for 30 mins by UV-Visible spectrophotometry
# [21] = Metal chelating activity assessed as Fe2+-compound complex formation by measuring red shift in presence of FeSO4 at 40 uM incubated for 30 mins by UV-Visible spectrophotometry
# [22] = Metal chelating activity assessed as Al3+-compound complex formation by measuring blue shift in presence of AlCl3 at 40 uM incubated for 30 mins by UV-Visible spectrophotometry
smiles,measurement,setting,value
Oc1c(Cl)cc(Cl)c2ccc(/C=C/C3=CCN(Cc4ccc(C(F)(F)F)cc4)CC3)nc12,IC50,[1],280 nM
Oc1c(Cl)cc(Cl)c2ccc(/C=C/C3=CCN(Cc4ccccc4Cl)CC3)nc12,IC50,[1],410 nM
Cc1cccc(CN2CC=C(/C=C/c3ccc4cccc(O)c4n3)CC2)c1,IC50,[1],430 nM
Oc1c(Cl)cc(Cl)c2ccc(/C=C/C3=CCN(Cc4cccc(C(F)(F)F)c4)CC3)nc12,IC50,[1],700 nM
Cc1ccccc1CN1CC=C(/C=C/c2ccc3c(Cl)cc(Cl)c(O)c3n2)CC1,IC50,[1],560 nM
Oc1c(Cl)cc(Cl)c2ccc(/C=C/C3=CCN(Cc4cccc(F)c4)CC3)nc12,IC50,[1],520 nM
Oc1c(Cl)cc(Cl)c2ccc(/C=C/C3=CCN(Cc4ccccc4C(F)(F)F)CC3)nc12,IC50,[1],340 nM
Oc1cccc2ccc(/C=C/C3=CCN(Cc4ccc(F)cc4)CC3)nc12,IC50,[1],1660 nM
Oc1c(Cl)cc(Cl)c2ccc(/C=C/C3=CCN(Cc4ccccc4Br)CC3)nc12,IC50,[1],540 nM
Oc1c(Cl)cc(Cl)c2ccc(/C=C/C3=CCN(Cc4ccccc4)CC3)nc12,IC50,[1],2310 nM
Oc1cccc2ccc(/C=C/C3=CCN(Cc4ccc(Br)cc4)CC3)nc12,IC50,[1],260 nM
Oc1c(I)cc(Cl)c2cccnc12,inhibition,[2],Active
same,inhibition,[3],inactive
same,inhibition,[4],Active
Oc1c(Cl)cc(Cl)c2ccc(/C=C/C3=CCN(Cc4cccc(Br)c4)CC3)nc12,IC50,[1],320 nM
Oc1cccc2ccc(/C=C/C3=CCN(Cc4cccc(Br)c4)CC3)nc12,IC50,[1],1530 nM
Oc1cccc2ccc(/C=C/C3=CCN(Cc4ccc(Cl)cc4)CC3)nc12,IC50,[1],3050 nM
Oc1c(Cl)cc(Cl)c2ccc(/C=C/C3=CCN(Cc4ccccc4F)CC3)nc12,IC50,[1],290 nM
Oc1cccc2ccc(/C=C/C3=CCN(Cc4ccccc4F)CC3)nc12,IC50,[1],570 nM
Oc1cccc2ccc(/C=C/C3=CCN(Cc4cccc(Cl)c4)CC3)nc12,IC50,[1],750 nM
Cc1ccccc1CN1CC=C(/C=C/c2ccc3cccc(O)c3n2)CC1,IC50,[1],400 nM
COc1cc2c(cc1OC)C(=O)C(CC1CCN(Cc3ccccc3)CC1)C2 (configuration not stated) [DONEPEZIL],Activity,[5],Active
same,Activity,[6],Active
same,Activity,[7],Active
same,IC50,[8],202000 nM
same,IC50,[9],155000 nM
same,LD50 at 336 h,[10],28.1 mg/kg
same,IC50,[11],326000 nM
same,Activity,[12],Active
same,Activity,[13],Active
same,IC50,[14],35000 nM
same,Activity,[15],Active
same,Activity,[16],Active
same,Activity,[17],Active
Oc1c(Cl)cc(Cl)c2ccc(/C=C/C3=CCN(Cc4cccc(Cl)c4)CC3)nc12,IC50,[1],330 nM
Oc1cccc2ccc(/C=C/C3=CCN(Cc4ccc(C(F)(F)F)cc4)CC3)nc12,IC50,[1],320 nM
Oc1cccc2ccc(/C=C/C3=CCN(Cc4ccccc4Br)CC3)nc12,IC50,[1],490 nM
Oc1cccc2ccc(/C=C/C3=CCN(Cc4ccccc4Cl)CC3)nc12,IC50,[1],1290 nM
Cc1ccc(CN2CC=C(/C=C/c3ccc4cccc(O)c4n3)CC2)cc1,IC50,[1],260 nM
Cc1cccc(CN2CC=C(/C=C/c3ccc4c(Cl)cc(Cl)c(O)c4n3)CC2)c1,Activity,[18],inactive
same,Activity,[19],Active
same,Activity,[20],inactive
same,Activity,[21],Active
same,IC50,[1],250 nM
same,Activity,[22],Active
Oc1cccc2ccc(/C=C/C3=CCN(Cc4cccc(F)c4)CC3)nc12,IC50,[1],720 nM
Oc1cccc2ccc(/C=C/C3=CCN(Cc4cccc(C(F)(F)F)c4)CC3)nc12,IC50,[1],550 nM
Oc1c(Cl)cc(Cl)c2ccc(/C=C/C3=CCN(Cc4ccc(F)cc4)CC3)nc12,IC50,[1],270 nM
Oc1c(Cl)cc(Cl)c2ccc(/C=C/C3=CCN(Cc4ccc(Br)cc4)CC3)nc12,IC50,[1],640 nM
Oc1c(Cl)cc(Cl)c2ccc(/C=C/C3=CCN(Cc4ccc(Cl)cc4)CC3)nc12,IC50,[1],620 nM
Cc1ccc(CN2CC=C(/C=C/c3ccc4c(Cl)cc(Cl)c(O)c4n3)CC2)cc1,IC50,[1],540 nM
Oc1cccc2ccc(/C=C/C3=CCN(Cc4ccccc4)CC3)nc12,IC50,[1],1110 nM
